Laboratory results taken from US5654451A, “Amino acids and peptides having modified C-terminals and modified N-terminals” (Magainin Pharmaceuticals Inc., priority 1995, dated 1997).
In brackets after ≈: the same amount, converted by molar mass. Several values for one entry are separate records, joined by “and”; a condition that tells them apart may be missing. Equal values may be shown once.

Columns and labels:
Test in all cases: Antimicrobial assay (MIC, microtiter broth dilution)
Type in all cases: cell-based
E. coli = tested on: E. coli
Method: (§1) The procedure for the antimicrobial assay is based upon the guidelines of the National Committee for Clinical Laboratory Standards, Document M7-T2, Volume 8, No. 8, 1988.
(§2) 1-5×10^5 CFUs/ml of either S. aureus ATCC 25923, E. coli ATCC 25922, P. aeruginosa ATCC 27853, or C. albicans were added to the wells in full strength Mueller Hinton broth (BBL 11443) from a mid-log culture. The inoculum is standardized spectrophotometrically at 600 nm and is verified by colony counts. The plates are incubated for 16-20 hours at 37° C., and the minimal inhibitory concentrations (MIC) for the compounds are determined. Minimal inhibitory concentration is defined as the lowest concentration of amino acid or peptide which produces a clear well in the microtiter plate.

C. albicans = details: for MIC C. albicans: Table I; for MIC Candida: Table VI
Method: as §1, §2

S. aureus = details: for MIC S. aureus: Table I, S. aureus ATCC 25923; for MIC Staph: Table VI
Method: as §1, §2

P. aeruginosa = details: for MIC P aeruginosa: Table I, P. aeruginosa ATCC 27853; for MIC Psuedo: Table VI
Method: as §1, §2

Molecule	MIC E. coli (E. coli; Table I, E. coli ATCC 25922)	MIC C. albicans (C. albicans)	MIC S. aureus (S. aureus)	MIC P aeruginosa (P. aeruginosa)	MIC E. coli (E. coli; Table VI)	MIC Candida (C. albicans)	MIC Staph (S. aureus)	MIC Psuedo (P. aeruginosa)
NC(N)=NCCCC(N)C(=O)NCCCCCCCCCCCCNC(=O)C(N)CCCN=C(N)N (stereo not shown) [Compound 8, 1,12-[di-arginyl]diaminododecane]	> 256 µg/mL	> 256 µg/mL	128 µg/mL (≈ 250 µM)	> 256 µg/mL	–	–	–	–
CCCCCCCNC(=O)C(Cc1ccc(C(=N)N)cc1)NC(=N)N (stereo not drawn) [Compound 29, p-guanyl-N-α-amidino-phenylalanyl heptylamide]	> 256 µg/mL	256 µg/mL (≈ 739 µM)	64 µg/mL (≈ 185 µM)	> 256 µg/mL	–	–	–	–
CCCCCCCCN(CCCCCCCC)C(=O)C(Cc1ccccc1)N=C(N)N (stereo not drawn) [Compound 32, N-α-amidino-phenylalanyl dioctylamide]	8 µg/mL (≈ 18.6 µM)	2 µg/mL (≈ 4.64 µM)	1,2 μg/ml	128 µg/mL (≈ 297 µM)	–	–	–	–
CCCCCCCCCCCCNC(=O)c1ccc(CNC(=N)N)cc1 [Compound 38, P-Guanidino-methyl-benzoyl-dodecylamide]	–	–	–	–	16 µg/mL (≈ 44.4 µM)	4 µg/mL (≈ 11.1 µM)	1 to 2 µg/mL	64 µg/mL (≈ 178 µM)
N=C(N)NC(Cc1ccccc1)C(=O)Nc1ccc(C=Cc2ccc(NC(=O)C(Cc3ccccc3)NC(=N)N)cc2)cc1 (stereo not drawn) [Compound 47, 4,4'-[Di-(N^α -amidino-Phe)] diaminostilbene]	–	–	–	–	16 µg/mL (≈ 27.2 µM)	256 µg/mL (≈ 435 µM)	05 to 10 µg/mL	32 µg/mL (≈ 54.4 µM)
NC(N)=NCCCC(N)C(=O)Nc1ccc(C=Cc2ccc(NC(=O)C(N)CCCN=C(N)N)cc2)cc1 (stereo not shown) [Compound 49, 4,4'-[Di-Arg] diaminostilbene]	–	–	–	–	256 µg/mL (≈ 490 µM)	64 µg/mL (≈ 122 µM)	8 µg/mL (≈ 15.3 µM)	128 µg/mL (≈ 245 µM)
CCCCCCCCN(CCCCCCCC)C(=O)C(Cc1c[nH]c2ccccc12)NC(=N)N (stereo not drawn) [Compound 66, N^α -Amidino-Trp-dioctylamide]	–	–	–	–	256 µg/mL (≈ 545 µM)	16 µg/mL (≈ 34.1 µM)	8 µg/mL (≈ 17 µM)	256 µg/mL (≈ 545 µM)
CCCCCN(CCCCC)C(=O)C(Cc1ccccc1)NC(=N)N (stereo not drawn) [Compound 67, N^α -Amidino-Phe-dipentylamide]	–	–	–	–	64 µg/mL (≈ 185 µM)	64 µg/mL (≈ 185 µM)	4 µg/mL (≈ 11.5 µM)	128 µg/mL (≈ 369 µM)
CCCCCCN(CCCCCC)C(=O)C(Cc1ccccc1)NC(=N)N (stereo not drawn) [Compound 68, N^α -Amidino-Phe-dihexylamide]	–	–	–	–	16 to 32 µg/mL	4 to 16 µg/mL	0.5 to 1.0 µg/mL	16 to 64 µg/mL
CCCCCCCCN(CCCCCCCC)C(=O)[C@@H](Cc1ccccc1)NC(=N)N [Compound 70, N^α -Amidino-D Phe-dioctylamide]	–	–	–	–	64 µg/mL (≈ 149 µM)	2 µg/mL (≈ 4.64 µM)	2 µg/mL (≈ 4.64 µM)	256 µg/mL (≈ 594 µM)
CCCCCCCCN(CCCCCCCC)C(=O)C(Cc1ccc2ccccc2c1)N=C(N)N (stereo not drawn) [Compound 73, N^α -Amidino-β-Nal-dioctylamide]	–	–	–	–	> 256 µg/mL	4 µg/mL (≈ 8.32 µM)	4 µg/mL (≈ 8.32 µM)	> 256 µg/mL
CCCCCCCCN(CCCCCCCC)C(=O)C(CC1CCCCC1)NC(=N)N (stereo not drawn) [Compound 74, N^α -Amidino-Cha-dioctylamide]	–	–	–	–	> 256 µg/mL	2 µg/mL (≈ 4.58 µM)	2 µg/mL (≈ 4.58 µM)	> 256 µg/mL
N=C(N)NC(Cc1ccccc1)C(=O)NC12CC3CC(CC(C3)C1)C2 (stereo not drawn) [Compound 76, N^α -Amidino-Phe-adamantanamide]	–	–	–	–	256 µg/mL (≈ 752 µM)	128 µg/mL (≈ 376 µM)	16 µg/mL (≈ 47 µM)	256 µg/mL (≈ 752 µM)
N=C(N)NC(Cc1ccccc1)C(=O)NC1CCCCC1 (stereo not drawn) [Compound 77, N^α -Amidino-Phe-cyclohexylamide]	–	–	–	–	> 256 µg/mL	> 256 µg/mL	128 µg/mL (≈ 444 µM)	> 256 µg/mL
CCCCCCCCN(CCCCCCCC)C(=O)C(Cc1cnc[nH]1)NC(=N)N (stereo not drawn) [Compound 78, N^α -Amidino-His-dioctylamide]	–	–	–	–	4 µg/mL (≈ 9.51 µM)	1 µg/mL (≈ 2.38 µM)	1 µg/mL (≈ 2.38 µM)	8 µg/mL (≈ 19 µM)
CCCCCCCCN(CCCCCCCC)C(=O)CCCCNC(=N)N [Compound 79, S-Guanidino Valeryl-dioctylamide]	–	–	–	–	8 µg/mL (≈ 20.9 µM)	1 to 2 µg/mL	2 µg/mL (≈ 5.23 µM)	> 256 µg/mL
CCCCCCCCN(CCCCCCCC)C(=O)C(Cc1ccccc1)NCc1ncc[nH]1 (stereo not drawn) [Compound 80, N^α -(Imidazole-2-methyl)-Phe-dioctylamide]	–	–	–	–	> 256 µg/mL	> 256 µg/mL	2 µg/mL (≈ 4.27 µM)	> 256 µg/mL
CCCCCCCCN(CCCCCCCC)C(=O)C(N)Cc1ccccc1 (stereo not shown) [Compound 81, Phe-dioctylamide]	–	–	–	–	> 256 µg/mL	> 256 µg/mL	4 µg/mL (≈ 10.3 µM)	> 256 µg/mL

Molecule	MIC E. coli (E. coli; Table I, E. coli ATCC 25922)	MIC C. albicans (C. albicans)	MIC S. aureus (S. aureus)	MIC P aeruginosa (P. aeruginosa)	MIC E. coli (E. coli; Table VI)	MIC Candida (C. albicans)	MIC Staph (S. aureus)	MIC Psuedo (P. aeruginosa)
CCCCCCCCN(CCCCCCCC)C(=O)C(Cc1ccc(F)cc1)NC(=N)N (stereo not drawn) [Compound 83, N^α -Amidino-p-F-Phe-diocytlamide]	–	–	–	–	64 µg/mL (≈ 143 µM)	2 µg/mL (≈ 4.46 µM)	2 µg/mL (≈ 4.46 µM)	128 µg/mL (≈ 285 µM)
CCCCCCCCN(CCCCCCCC)C(=O)CC(O)CNC(=N)N (stereo not drawn) [Compound 84, γ-Guanidino-β-hydroxy butyrul dioctylamide]	–	–	–	–	4 µg/mL (≈ 10.4 µM)	0.5 µg/mL (≈ 1.3 µM)	1 µg/mL (≈ 2.6 µM)	16 µg/mL (≈ 41.6 µM)
CCCCCCCCN(CCCCCCCC)C(=O)[C@H](Cc1ccccc1)NC(=O)CC(O)CNC(=N)N (stereo partly drawn) [Compound 85, γ-Guanidino-β-hydroxy butyryl-Phe-dioctylamide]	–	–	–	–	32 µg/mL (≈ 60.2 µM)	0.5 µg/mL (≈ 0.94 µM)	1 µg/mL (≈ 1.88 µM)	64 µg/mL (≈ 120 µM)
N=C(N)NC(CCC(=O)NC12CC3CC(CC(C3)C1)C2)C(=O)NC12CC3CC(CC(C3)C1)C2 (stereo not drawn) [Compound 86, N^α -Amidino-Glu-(α,γ) diadamantanamide]	–	–	–	–	128 µg/mL (≈ 281 µM)	32 to 64 µg/mL	4 µg/mL (≈ 8.78 µM)	128 µg/mL (≈ 281 µM)
CCCCCCCCN(CCCCCCCC)C(=O)CCNC(=O)CC(O)CNC(=N)N (stereo not drawn) [Compound 87, γ-Guanidino-β-hydroxy butyryl-β-Ala-dioctylamide]	–	–	–	–	4 µg/mL (≈ 8.78 µM)	0.5 µg/mL (≈ 1.1 µM)	2 µg/mL (≈ 4.39 µM)	16 µg/mL (≈ 35.1 µM)
CCCCCCCCN(CCCCCCCC)C(=O)C(Cc1ccc(N)cc1)NC(=N)N (stereo not drawn) [Compound 88, N^α -Amidino-p-amino-Phe-dioctylamide]	–	–	–	–	4 µg/mL (≈ 8.97 µM)	0.5 µg/mL (≈ 1.12 µM)	1 µg/mL (≈ 2.24 µM)	32 µg/mL (≈ 71.8 µM)
N-α-amidino phenylalanyl heptylamide [Compound 27]	128 µg/mL	64 µg/mL	8 µg/mL	128 µg/mL	–	–	–	–
N-α-amidino phenylalanyl hexadecylamide [Compound 34]	> 256 µg/mL	64 µg/mL	32 µg/mL	> 256 µg/mL	–	–	–	–
N-α-amidino phenylalanyl tetradecylamide [Compound 33]	128 µg/mL	16 µg/mL	8 µg/mL	> 256 µg/mL	–	–	–	–
N-α-amidino-phenylalanyl dodecylamide [Compound 31]	8 µg/mL	4 µg/mL	2 µg/mL	64 µg/mL	–	–	–	–
N^α -Amidino-Phe-didecylamide [Compound 69]	–	–	–	–	16 µg/mL	32 µg/mL and 64 µg/mL	–	> 256 µg/mL and 256 µg/mL
p-Guanidino methyl-benzoyl dioctylamide [Compound 72]	–	–	–	–	4 µg/mL	0.5 µg/mL	1 µg/mL	64 µg/mL
phenylalanyl heptylamide [Compound 26]	128 µg/mL	128 µg/mL	256 µg/mL	> 256 µg/mL	–	–	–	–
β-Guanidino-propionyl adamantanamide [Compound 82]	–	–	–	–	> 256 µg/mL	> 256 µg/mL	64 µg/mL	> 256 µg/mL
β-Guanidino-propionyl dioctylamide [Compound 75]	–	–	–	–	4 to 8 µg/mL	1.0 µg/mL	0.5 to 1.0 µg/mL	16 µg/mL
β-Guanidino-propionyl dodecylamide [Compound 37]	–	–	–	–	4 to 8 µg/mL	4 µg/mL	1 µg/mL	16 µg/mL
γ-Guanidino-butyryl dioctylamide [Compound 71]	–	–	–	–	4 µg/mL	< 0.25 µg/mL	0.5 to 1.0 µg/mL	32 µg/mL
